# Assay results: patent publication US20120245137A1 (Zalicus Pharmaceuticals Ltd., priority 2009, published 2012)
# What was measured:
# Assay type in all cases: cell-based
# [1] = target: human α1H T-type channels (Homo sapiens, UniProt O95180); assay: T-type calcium channel block, whole cell patch clamp, α1H; details: HEK cells stably expressing human α1H; mainly non-inactivated protocol; values above 10,000 nM represented as 10000
# In short: (§1)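 Whole-cell T-type currents, stably transfected HEK 293 (human α1G/α1H), passage 4-20. Cmpd in external soln, 0.1-0.01% DMSO, local gravity perfusion after ~10 min rest. Two voltage protocols: non-inactivating (resting block), inactivation (voltage-dependent block).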
# [2] = target: human α1G T-type channels (Homo sapiens, UniProt O43497); assay: T-type calcium channel block, whole cell patch clamp, α1G; details: HEK cells stably expressing human α1G; mainly non-inactivated protocol; values above 10,000 nM represented as 10000
# In short: as §1
# [3] = target: N-type calcium channel subunits (α1B, α2δ, and β3a) (Homo sapiens, UniProt Q00975); assay: Block of Cav2.2 channel, whole cell voltage clamp, manual and PatchXpress; details: Table 5; table follows Assay Example 3 (whole cell voltage clamp / PatchXpress); assay not given
# In short: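 Percent block taken as current amplitude ratio with versus without compound, applied in rising doses; IC50 fitted where one cell received multiple doses. Protocol: 50 ms pulses to +20 mV at 0.067 Hz from […] or −90 mV holding; P/n leak subtraction, no junction-potential correction; manual and PatchXpress recordings.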
# Sequence of human α1G T-type channels (O43497 whole entry): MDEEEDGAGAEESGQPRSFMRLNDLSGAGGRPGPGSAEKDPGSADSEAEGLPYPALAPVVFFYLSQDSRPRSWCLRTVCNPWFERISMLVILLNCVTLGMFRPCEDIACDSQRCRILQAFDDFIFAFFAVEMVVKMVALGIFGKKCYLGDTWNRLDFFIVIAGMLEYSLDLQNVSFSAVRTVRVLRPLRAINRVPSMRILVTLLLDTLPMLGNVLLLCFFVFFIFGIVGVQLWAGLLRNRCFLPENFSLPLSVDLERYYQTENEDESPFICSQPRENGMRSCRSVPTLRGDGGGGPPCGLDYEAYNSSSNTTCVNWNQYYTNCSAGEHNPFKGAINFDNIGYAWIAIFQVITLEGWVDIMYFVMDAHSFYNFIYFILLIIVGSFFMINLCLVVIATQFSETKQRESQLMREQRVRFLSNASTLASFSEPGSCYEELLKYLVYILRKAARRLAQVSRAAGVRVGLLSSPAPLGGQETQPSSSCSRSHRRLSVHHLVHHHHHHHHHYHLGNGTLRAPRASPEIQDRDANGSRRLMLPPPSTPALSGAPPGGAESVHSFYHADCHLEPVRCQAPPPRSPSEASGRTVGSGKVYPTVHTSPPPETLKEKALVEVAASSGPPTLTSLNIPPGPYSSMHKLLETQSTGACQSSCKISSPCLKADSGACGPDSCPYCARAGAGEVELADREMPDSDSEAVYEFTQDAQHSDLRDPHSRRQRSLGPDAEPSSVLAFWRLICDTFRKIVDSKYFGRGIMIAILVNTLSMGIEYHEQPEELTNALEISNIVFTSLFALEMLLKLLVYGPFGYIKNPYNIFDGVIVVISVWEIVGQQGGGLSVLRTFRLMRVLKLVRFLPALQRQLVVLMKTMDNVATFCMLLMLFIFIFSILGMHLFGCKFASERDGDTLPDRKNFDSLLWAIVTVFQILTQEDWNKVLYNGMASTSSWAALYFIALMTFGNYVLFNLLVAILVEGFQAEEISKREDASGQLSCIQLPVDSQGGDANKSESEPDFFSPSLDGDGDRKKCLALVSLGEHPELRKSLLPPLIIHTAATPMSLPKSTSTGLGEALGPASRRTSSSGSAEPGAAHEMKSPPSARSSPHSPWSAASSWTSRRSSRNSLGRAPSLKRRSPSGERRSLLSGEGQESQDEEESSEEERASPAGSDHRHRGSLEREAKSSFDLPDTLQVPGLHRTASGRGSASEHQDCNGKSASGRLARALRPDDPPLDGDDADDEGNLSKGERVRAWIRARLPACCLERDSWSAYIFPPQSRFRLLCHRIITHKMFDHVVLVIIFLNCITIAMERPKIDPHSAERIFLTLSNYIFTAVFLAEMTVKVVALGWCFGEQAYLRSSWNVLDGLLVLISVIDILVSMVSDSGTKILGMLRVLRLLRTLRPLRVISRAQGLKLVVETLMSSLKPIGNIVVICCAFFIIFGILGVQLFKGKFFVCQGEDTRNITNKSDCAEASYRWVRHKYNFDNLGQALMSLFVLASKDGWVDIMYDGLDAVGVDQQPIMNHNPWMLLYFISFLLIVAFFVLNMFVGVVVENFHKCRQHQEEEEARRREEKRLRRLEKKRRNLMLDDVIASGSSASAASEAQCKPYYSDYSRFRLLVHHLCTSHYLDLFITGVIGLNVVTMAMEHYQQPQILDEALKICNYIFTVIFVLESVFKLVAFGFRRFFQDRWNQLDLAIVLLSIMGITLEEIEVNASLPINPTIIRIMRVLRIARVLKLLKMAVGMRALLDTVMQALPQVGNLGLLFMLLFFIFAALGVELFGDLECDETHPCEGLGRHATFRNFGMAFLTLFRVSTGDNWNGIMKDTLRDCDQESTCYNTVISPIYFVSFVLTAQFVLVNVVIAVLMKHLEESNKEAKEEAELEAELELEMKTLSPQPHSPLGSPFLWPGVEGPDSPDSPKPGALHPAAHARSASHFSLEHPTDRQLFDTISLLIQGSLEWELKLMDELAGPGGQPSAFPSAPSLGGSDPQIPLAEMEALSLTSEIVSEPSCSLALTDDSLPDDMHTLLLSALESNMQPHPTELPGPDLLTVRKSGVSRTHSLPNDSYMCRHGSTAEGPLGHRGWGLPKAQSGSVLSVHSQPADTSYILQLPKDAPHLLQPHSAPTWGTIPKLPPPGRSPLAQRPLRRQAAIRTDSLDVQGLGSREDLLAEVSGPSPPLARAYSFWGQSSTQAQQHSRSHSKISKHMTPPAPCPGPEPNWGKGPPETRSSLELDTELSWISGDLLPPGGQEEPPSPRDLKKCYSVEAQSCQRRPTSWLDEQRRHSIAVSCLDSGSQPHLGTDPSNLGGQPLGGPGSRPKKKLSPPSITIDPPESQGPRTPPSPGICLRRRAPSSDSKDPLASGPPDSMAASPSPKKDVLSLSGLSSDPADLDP
# Sequence of human α1H T-type channels (O95180 whole entry, the tested form may be a part): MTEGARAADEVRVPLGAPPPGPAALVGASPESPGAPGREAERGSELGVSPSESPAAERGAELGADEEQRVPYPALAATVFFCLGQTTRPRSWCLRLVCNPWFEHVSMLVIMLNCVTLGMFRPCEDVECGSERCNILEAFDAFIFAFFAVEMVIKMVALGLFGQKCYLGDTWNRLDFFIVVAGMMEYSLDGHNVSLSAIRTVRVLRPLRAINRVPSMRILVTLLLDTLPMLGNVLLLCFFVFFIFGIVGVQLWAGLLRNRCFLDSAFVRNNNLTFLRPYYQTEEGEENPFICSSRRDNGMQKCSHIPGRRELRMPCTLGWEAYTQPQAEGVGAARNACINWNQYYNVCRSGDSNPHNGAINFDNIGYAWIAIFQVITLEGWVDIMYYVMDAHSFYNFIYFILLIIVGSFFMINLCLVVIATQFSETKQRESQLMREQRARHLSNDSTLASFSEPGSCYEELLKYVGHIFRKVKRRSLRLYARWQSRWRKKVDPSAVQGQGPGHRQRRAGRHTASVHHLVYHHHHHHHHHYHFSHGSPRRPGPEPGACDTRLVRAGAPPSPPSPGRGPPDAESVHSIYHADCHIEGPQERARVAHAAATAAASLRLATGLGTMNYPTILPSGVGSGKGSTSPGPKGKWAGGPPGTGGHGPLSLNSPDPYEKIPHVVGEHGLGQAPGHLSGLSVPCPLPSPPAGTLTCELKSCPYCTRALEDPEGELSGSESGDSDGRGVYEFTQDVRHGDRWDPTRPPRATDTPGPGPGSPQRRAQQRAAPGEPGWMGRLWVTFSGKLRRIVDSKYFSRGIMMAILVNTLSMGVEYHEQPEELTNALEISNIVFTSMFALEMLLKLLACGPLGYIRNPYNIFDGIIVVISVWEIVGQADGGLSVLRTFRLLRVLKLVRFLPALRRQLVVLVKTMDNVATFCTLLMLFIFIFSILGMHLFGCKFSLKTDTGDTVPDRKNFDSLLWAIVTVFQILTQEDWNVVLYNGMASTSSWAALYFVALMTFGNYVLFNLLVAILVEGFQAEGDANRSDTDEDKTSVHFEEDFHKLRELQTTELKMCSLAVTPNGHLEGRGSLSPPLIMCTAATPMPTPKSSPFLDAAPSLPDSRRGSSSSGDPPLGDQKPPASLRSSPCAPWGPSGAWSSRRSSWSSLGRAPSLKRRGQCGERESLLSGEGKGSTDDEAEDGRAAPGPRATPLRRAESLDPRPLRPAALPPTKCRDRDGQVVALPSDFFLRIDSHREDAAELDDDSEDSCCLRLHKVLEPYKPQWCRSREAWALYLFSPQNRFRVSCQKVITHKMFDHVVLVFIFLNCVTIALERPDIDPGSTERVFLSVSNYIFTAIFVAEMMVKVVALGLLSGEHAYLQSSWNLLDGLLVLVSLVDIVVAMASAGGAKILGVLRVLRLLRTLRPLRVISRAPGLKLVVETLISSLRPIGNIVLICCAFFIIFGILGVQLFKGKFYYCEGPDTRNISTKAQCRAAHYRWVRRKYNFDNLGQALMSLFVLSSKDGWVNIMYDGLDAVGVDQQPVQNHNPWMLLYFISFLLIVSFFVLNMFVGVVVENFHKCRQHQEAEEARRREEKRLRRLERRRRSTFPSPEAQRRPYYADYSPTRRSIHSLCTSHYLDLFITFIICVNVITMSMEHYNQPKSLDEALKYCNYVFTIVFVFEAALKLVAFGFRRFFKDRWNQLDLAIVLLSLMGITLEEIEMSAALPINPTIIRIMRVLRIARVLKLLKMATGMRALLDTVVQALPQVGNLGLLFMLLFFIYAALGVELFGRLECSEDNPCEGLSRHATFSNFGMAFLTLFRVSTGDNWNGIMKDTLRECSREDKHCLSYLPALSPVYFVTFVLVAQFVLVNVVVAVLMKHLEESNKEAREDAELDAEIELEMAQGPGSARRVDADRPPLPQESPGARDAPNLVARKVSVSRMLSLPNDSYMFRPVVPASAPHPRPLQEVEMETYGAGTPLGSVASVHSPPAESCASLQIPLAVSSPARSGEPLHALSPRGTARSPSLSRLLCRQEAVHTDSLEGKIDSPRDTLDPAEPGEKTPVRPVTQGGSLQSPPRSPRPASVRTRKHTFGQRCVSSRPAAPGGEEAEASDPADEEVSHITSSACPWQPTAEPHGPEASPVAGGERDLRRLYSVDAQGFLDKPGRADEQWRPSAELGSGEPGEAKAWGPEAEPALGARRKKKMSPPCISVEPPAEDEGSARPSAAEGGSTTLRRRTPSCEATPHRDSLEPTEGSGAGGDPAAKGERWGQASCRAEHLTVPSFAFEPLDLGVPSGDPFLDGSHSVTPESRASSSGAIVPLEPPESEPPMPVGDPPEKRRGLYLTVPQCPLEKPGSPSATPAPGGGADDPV
Molecule,IC50 [1],IC50 [2],IC50 [3]
"2-(4,4-difluoropiperidin-1-yl)-N- ((1R,4R)-4-((3- (trifluoromethyl)phenylsulfonyl) methyl)cyclohexyl)acetamide [Compound 166]",8470 nM,> 10000 nM,750 nM
"3-chloro-4-fluoro-N-((1R,4R)4-(3- (trifluoromethyl)phenylsulfonyl) cyclohexyl)benzamide [Compound 124]",540 nM,350 nM,510 nM
3-chloro-5-fluoro-N-(1- methyl-4-(3-(trifluoromethyl) phenylsulfonyl)cyclohexyl) benzamide [Compound 318],1330 nM,2430 nM,620 nM
"3-chloro-5-fluoro-N-((1S,4S)-4-((3- (trifluoromethyl)phenylsulfonyl) methyl)cyclohexyl)benzamide [Compound 137]",330 nM,430 nM,320 nM
"4-chloro-2-(methylsulfonyl)-N- ((1R,4R)-4-(3- (trifluoromethyl)phenylsulfonyl) cyclohexyl)benzamide [Compound 121]",930 nM,720 nM,3730 nM
"4-chloro-2-methoxy-N-((1S,4S)-4- ((3- (trifluoromethyl)phenylsulfonyl) methyl)cyclohexyl)benzamide [Compound 140]",700 nM,1100 nM,700 nM
"4-chloro-3-fluoro-N-((1R,4R)-4-(3- (trifluoromethyl)phenylsulfonyl) cyclohexyl)benzamide [Compound 123]",440 nM,30 nM,660 nM
"4-fluoro-3-(trifluoromethyl)-N- ((1S,4S)-4-((3- (trifluoromethyl)phenylsulfonyl) methyl)cyclohexyl)benzamide [Compound 138]",2840 nM,9880 nM,420 nM
4-fluoro-N-(4-methyl-4-(3- (trifluoromethyl)phenylsulfonyl) cyclohexyl)-3-(trifluoromethyl) benzamide [Compound 4],6740 nM,8540 nM,140 nM
"5-(trifluoromethyl)-N-((1R,4R)-4- ((3- (trifluoromethyl)phenylsulfonyl) methyl)cyclohexyl)picolinamide [Compound 104]",> 10000 nM,> 10000 nM,840 nM
"CN(CCC(C)(C)S(=O)(=O)c1cccc(C(F)(F)F)c1)C(=O)c1cc(C(F)(F)F)n[nH]1 [Compound 513, N-methyl-N-(3-methyl-3-(3-(trifluoromethyl)phenylsulfonyl)butyl)-3-(trifluoromethyl)-1H-pyrazole-5-carboxamide]",> 10000 nM,490 nM,–
"CN(CCC(C)(C)S(=O)(=O)c1cccc(C(F)(F)F)c1)C(=O)c1cn2ccc(C(F)(F)F)cc2n1 [Compound 514, N-methyl-N-(3-methyl-3-(3-(trifluoromethyl)phenylsulfonyl)butyl)-7-(trifluoromethyl)imidazo[1,2-a]pyridine-2-carboxamide]",> 10000 nM,840 nM,–
"CN(CCC(C)(C)S(=O)(=O)c1cccc(C(F)(F)F)c1)CC(=O)NC(C)(C)C [Compound 516, N-tert-butyl-2-(methyl(3-methyl-3-(3-(trifluoromethyl)phenylsulfonyl)butyl)amino)acetamide]",> 10000 nM,620 nM,–
"CC(C)(CN[C@H]1CC[C@H](C(F)(F)F)CC1)S(=O)(=O)c1cccc(C(F)(F)F)c1 [Compound 517, (1R,4R)-N-(2-methyl-2-(3-(trifluoromethyl)phenylsulfonyl)propyl)-4-(trifluoromethyl)cyclo hexanamine]",6140 nM,170 nM,–
"CC1(C)CCC(NCC(C)(C)S(=O)(=O)c2cccc(C(F)(F)F)c2)CC1 [Compound 518, 4,4-dimethyl-N-(2-methyl-2-(3-(trifluoromethyl)phenylsulfonyl)propyl) cyclohexanamine]",4120 nM,600 nM,–
"CC(C)(CN[C@H]1CC[C@@H](C(F)(F)F)CC1)S(=O)(=O)c1cccc(C(F)(F)F)c1 [Compound 519, (1S,4S)-N-(2-methyl-2-(3-(trifluoromethyl)phenylsulfonyl)propyl)-4-(trifluoromethyl) cyclohexanamine]",3280 nM,550 nM,–

Molecule,IC50 [1],IC50 [2],IC50 [3]
"CC(C)(CCNC(=O)c1ccc(Oc2ccc(F)cc2)cc1)S(=O)(=O)c1cccc(C(F)(F)F)c1 [Compound 520, 4-(4-fluorophenoxy)-N-(3-methyl-3-(3-(trifluoromethyl)phenylsulfonyl)butyl) benzamide]",470 nM,110 nM,–
"CC(C)(CNC(=O)c1ccc(Oc2ccc(F)cc2)cc1)S(=O)(=O)c1cccc(C(F)(F)F)c1 [Compound 521, 4-(4-fluorophenoxy)-N-(2-methyl-2-(3-(trifluoromethyl)phenylsulfonyl)propyl) benzamide]",910 nM,470 nM,–
"CC(C)(CCNC(=O)c1ncc(C(F)(F)F)cc1S(C)(=O)=O)S(=O)(=O)c1cccc(C(F)(F)F)c1 [Compound 523, N-(3-methyl-3-(3-(trifluoromethyl)phenylsulfonyl)butyl)-3-(methylsulfonyl)-5-(trifluorornethyl)picolinamide]",> 10000 nM,560 nM,–
"CC(C)(C(=O)Nc1ccc(Oc2ccc(F)c(Cl)c2)nc1)S(=O)(=O)c1cccc(C(F)(F)F)c1 [Compound 524, N-(6-(3-chloro-4-tluorophenoxy)pyridin-3-yl)-2-methyl-2-(3-(trifluoromethyl)phenylsulfonyl)propanamide]",2070 nM,380 nM,–
"CC(C)(C(=O)Nc1ccc(Oc2ccc(C(F)(F)F)nc2)nc1)S(=O)(=O)c1cccc(C(F)(F)F)c1 [Compound 525, 2-methyl-2-(3-(trifluoromethyl)phenylsulfonyl)-N-(6-(6-(trifluoromethyl)pyridin-3-yloxy)pyridin-3-yl) propanamide]",2880 nM,470 nM,–
"CC(C)(CCNC(=O)c1cc(C(F)(F)F)nc(S(C)(=O)=O)c1)S(=O)(=O)c1cccc(C(F)(F)F)c1 [Compound 526, N-(3-methyl-3-(3-(trifluoromethyl)phenylsulfonyl)butyl)-2-(methylsulfonyl)-6-(trifluoromethyl)isonicotinamide]",2930 nM,240 nM,–
"CC(C)S(=O)(=O)c1cc(C(F)(F)F)cnc1C(=O)NCC(C)(C)S(=O)(=O)c1cccc(C(F)(F)F)c1 [Compound 527, 3-(isopropylsulfonyl)-N-(2-methyl-2-(3-(trifluoromethyl)phenylsulfonyl)propyl)-5-(trifluoromethyl)picolinamide]",> 10000 nM,70 nM,–
"CC(C)S(=O)(=O)c1cc(C(F)(F)F)cnc1C(=O)NCCC(C)(C)S(=O)(=O)c1cccc(C(F)(F)F)c1 [Compound 528, 3-(isopropylsulfonyl)-N-(3-methyl-3-(3-(trifluoromethyl)phenylsulfonyl)butyl)-5-(trifluoromethyl)picolinamide]",2410 nM,80 nM,–
"CC(C)(CCNC(=O)c1ccc(Cl)cc1S(C)(=O)=O)S(=O)(=O)c1cccc(C(F)(F)F)c1 [Compound 529, 4-chloro-N-(3-methyl-3-(3-(trifluoromethyl)phenylsulfonyl)butyl)-2-(methylsulfonyl)benzamide]",9690 nM,780 nM,–
"O=C(N[C@H]1CC[C@@](F)(S(=O)(=O)c2cccc(C(F)(F)F)c2)CC1)[C@H]1CCCCN1 [Compound 531, (R)-N-((1S,4S)-4-fluoro-4-(3-(trifluoromethyl)phenylsulfonyl)cyclohexyl) piperidine-2-carboxamide]",> 10000 nM,3560 nM,–
"O=C(N[C@H]1CC[C@@](F)(S(=O)(=O)c2cccc(C(F)(F)F)c2)CC1)[C@@H]1CCCCN1 [Compound 532, (S)-N-((1S,4R)-4-fluoro-4-(3-(trifluoromethyl)phenylsulfonyl)cyclohexyl) piperidine-2-carboxamide]",> 10000 nM,1630 nM,–
"CC(C)(CCNC(=O)c1ccc(F)c(C(F)(F)F)c1)S(=O)(=O)c1cc(F)cc(C(F)(F)F)c1 [Compound 533, 4-fluoro-N-(3-(3-fluoro-5-(trifluoromethyl)phenylsulfonyl)-3-methylbutyl)-3-(trifluoromethyl)benzamide]",1080 nM,350 nM,–
"Cn1nc(C(F)(F)F)cc1C(=O)NCCC(C)(C)S(=O)(=O)c1cc(F)cc(C(F)(F)F)c1 [Compound 535, N-(3-(3-fluoro-5-(trifluoromethyl)phenylsulfonyl)-3-methylbutyl)-l-methyl-3-(trifluoromcthyl)-1H-pyrazole-5-carboxamide]",4140 nM,700 nM,–
"CC(C)(CCNC(=O)c1cc(C(F)(F)F)nc(S(C)(=O)=O)c1)S(=O)(=O)c1cc(F)cc(C(F)(F)F)c1 [Compound 536, N-(3-(3-fluoro-5-(trifluoromethyl)phenylsulfonyl)-3-methylbutyl)-2-(methylsulfonyl)-6-(trifluoromethyl) isonicotinamide]",> 10000 nM,640 nM,–
"CC(C)(CCNC(=O)c1ccc(Oc2ccc(Cl)cc2)cc1)S(=O)(=O)c1cc(F)cc(C(F)(F)F)c1 [Compound 537, 4-(4-chlorophenoxy)-N-(3-(3-fluoro-5-(trifluoromethyl)phenylsulfonyl)-3-methylbutyl)benzamide]",740 nM,470 nM,–
